# Experimental data published in patent US11214594B2, “Antimicrobial peptide having synergistic antibacterial effect with antibiotics on multidrug resistant bacteria, and use thereof” (priority 2016, dated 2022).
# Where a SMILES comes first, the peptide text is derived from it. [ ]: non-standard residue; d: D form.
# Columns and labels:
# E. coli [1] = assay: microbe, parasite or virus in culture; type: cell-based, Escherichia coli; settings: 16 h
# Outline: (§1)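 MIC read-out = lowest peptide level with no bacterial proliferation. Strains diluted in MH medium to 2×10^6 CFU; peptide twofold serial dilutions in MH added 1:1 in microtiter wells.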
# MDREC 1229 = assay: microbe, parasite or virus in culture; type: cell-based, Escherichia coli
# Outline: as §1
# MDRST 8009 = type: cell-based, Salmonella typhimurium; settings: agent alone
# Outline: as §1
# E. coli [2] = assay: MIC of antibiotic during combined treatment with antimicrobial peptide; type: cell-based, Escherichia coli; settings: for Synergistic effect of antibacterial activity with existing antibiotics compared with PapMA-1: E. coli and MDREC1229; for Antibiotic MIC, Erythromycin / Antibiotic MIC, Linezolid / Antibiotic MIC, Vancomycin: E. coli
# Outline: (§2)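 Using MH broth, we determined combination MICs by titrating the antibiotic into wells and then repeating under the reverse dilution scheme.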
# A. baumannii = assay: as above; type: cell-based, Acinetobacter baumannii; settings: for Synergistic effect of antibacterial activity with existing antibiotics compared with PapMA-1: A. baumannii and MDRAB 12035; for Antibiotic MIC, Erythromycin / Antibiotic MIC, Linezolid / Antibiotic MIC, Vancomycin: A. baumannii
# Outline: as §2
# [3] = tested on: multi-drug resistant bacteria; assay: MIC, summary statements for multi-drug resistant bacteria; type: cell-based
# Outline: as §1
# [4] = erythromycin combined with peptide at 1 μg/ml
# [5] = erythromycin combined with peptide at 2 μg/ml
# [6] = erythromycin combined with peptide at 4 μg/ml
# [7] = erythromycin combined with peptide at 6 μg/ml
# [8] = erythromycin combined with peptide at 8 μg/ml
# [9] = erythromycin combined with peptide at 16 μg/ml
# [10] = erythromycin combined with peptide at 32 μg/ml
# [11] = erythromycin combined with peptide at 64 μg/ml
# [12] = linezolid combined with peptide at 1 μg/ml
# [13] = linezolid combined with peptide at 2 μg/ml
# [14] = linezolid combined with peptide at 4 μg/ml
# [15] = linezolid combined with peptide at 6 μg/ml
# [16] = linezolid combined with peptide at 8 μg/ml
# [17] = linezolid combined with peptide at 16 μg/ml
# [18] = linezolid combined with peptide at 32 μg/ml
# [19] = linezolid combined with peptide at 64 μg/ml
# [20] = vancomycin combined with peptide at 1 μg/ml
# [21] = vancomycin combined with peptide at 2 μg/ml
# [22] = vancomycin combined with peptide at 4 μg/ml
# [23] = vancomycin combined with peptide at 6 μg/ml
# [24] = vancomycin combined with peptide at 8 μg/ml
# [25] = vancomycin combined with peptide at 16 μg/ml
# [26] = vancomycin combined with peptide at 32 μg/ml
# [27] = vancomycin combined with peptide at 64 μg/ml
# [28] = combined with peptide at 1 μg/ml
# [29] = combined with peptide at 2 μg/ml
# [30] = combined with peptide at 4 μg/ml
# [31] = combined with peptide at 6 μg/ml
# [32] = combined with peptide at 8 μg/ml
# [33] = combined with peptide at 16 μg/ml
# [34] = combined with peptide at 32 μg/ml
# [35] = combined with peptide at 64 μg/ml
smiles,measurement,setting,value
"CC[C@H](C)[C@H](NC(=O)[C@H](CCCCN)NC(=O)[C@H](Cc1c[nH]c2ccccc12)NC(=O)[C@@H](N)CCCNC(=N)N)C(=O)N[C@@H](Cc1ccccc1)C(=O)N[C@@H](CCCCN)C(=O)N[C@@H](CCCCN)C(=O)N[C@H](C(=O)N[C@H](CCCCN)C(=O)N[C@@H](CCCCN)C(=O)N[C@@H](CC(C)C)C(=O)N[C@@H](CC(C)C)C(=O)N[C@@H](Cc1c[nH]cn1)C(=O)N[C@@H](CCC(=O)O)C(=O)N[C@@H](C)C(=O)N[C@@H](CCCCN)C(=O)N[C@@H](CCCCN)C(=O)N[C@@H](Cc1c[nH]c2ccccc12)C(N)=O)[C@@H](C)CC [PapMA-20, RWK IFK KIk KLL HEA KKW-NH2] (H-RWKIFKKI[dK]KLLHEAKKW-NH2; N-terminus assumed)",Minimal inhibitory concentration MIC,E. coli [1],16 µg/mL
same,Minimal inhibitory concentration MIC,MDREC 1229,16 µg/mL
same,"Peptide MIC, peptide alone",MDREC 1229,16 µg/mL
same,Minimal inhibitory concentration MIC,MDRST 8009,64 µg/mL
same,Synergistic effect of antibacterial activity with existing antibiotics compared with PapMA-1,E. coli [2],higher level than the PapMA-1 peptide
same,"Antibiotic MIC, Erythromycin",E. coli [2]; [4],64 µg/mL
same,"Antibiotic MIC, Erythromycin",E. coli [2]; [5],32 µg/mL
same,"Antibiotic MIC, Erythromycin",E. coli [2]; [6],8 µg/mL
same,"Antibiotic MIC, Erythromycin",E. coli [2]; [7],1 µg/mL
same,"Antibiotic MIC, Erythromycin",E. coli [2]; [8],0.5 µg/mL
same,"Antibiotic MIC, Erythromycin",E. coli [2]; [9],0 µg/mL
same,"Antibiotic MIC, Erythromycin",E. coli [2]; [10],0 µg/mL
same,"Antibiotic MIC, Erythromycin",E. coli [2]; [11],0 µg/mL
same,"Antibiotic MIC, Linezolid",E. coli [2]; [12],>128 µg/mL
same,"Antibiotic MIC, Linezolid",E. coli [2]; [13],64 µg/mL
same,"Antibiotic MIC, Linezolid",E. coli [2]; [14],16 µg/mL
same,"Antibiotic MIC, Linezolid",E. coli [2]; [15],8 µg/mL
same,"Antibiotic MIC, Linezolid",E. coli [2]; [16],4 µg/mL
same,"Antibiotic MIC, Linezolid",E. coli [2]; [17],0 µg/mL
same,"Antibiotic MIC, Linezolid",E. coli [2]; [18],0 µg/mL
same,"Antibiotic MIC, Linezolid",E. coli [2]; [19],0 µg/mL
same,"Antibiotic MIC, Vancomycin",E. coli [2]; [20],>128 µg/mL
same,"Antibiotic MIC, Vancomycin",E. coli [2]; [21],>128 µg/mL
same,"Antibiotic MIC, Vancomycin",E. coli [2]; [22],64 µg/mL
same,"Antibiotic MIC, Vancomycin",E. coli [2]; [23],16 µg/mL
same,"Antibiotic MIC, Vancomycin",E. coli [2]; [24],8 µg/mL
same,"Antibiotic MIC, Vancomycin",E. coli [2]; [25],0 µg/mL
same,"Antibiotic MIC, Vancomycin",E. coli [2]; [26],0 µg/mL
same,"Antibiotic MIC, Vancomycin",E. coli [2]; [27],0 µg/mL
same,Synergistic effect of antibacterial activity with existing antibiotics compared with PapMA-1,A. baumannii,higher level than the PapMA-1 peptide
same,"Antibiotic MIC, Erythromycin",A. baumannii; [28],32 µg/mL
same,"Antibiotic MIC, Linezolid",A. baumannii; [28],>128 µg/mL
same,"Antibiotic MIC, Vancomycin",A. baumannii; [28],>128 µg/mL
same,"Antibiotic MIC, Erythromycin",A. baumannii; [29],16 µg/mL
same,"Antibiotic MIC, Linezolid",A. baumannii; [29],64 µg/mL
same,"Antibiotic MIC, Vancomycin",A. baumannii; [29],>128 µg/mL
same,"Antibiotic MIC, Erythromycin",A. baumannii; [30],2 µg/mL
same,"Antibiotic MIC, Linezolid",A. baumannii; [30],16 µg/mL
same,"Antibiotic MIC, Vancomycin",A. baumannii; [30],32 µg/mL
same,"Antibiotic MIC, Erythromycin",A. baumannii; [31],1 µg/mL
same,"Antibiotic MIC, Linezolid",A. baumannii; [31],8 µg/mL
same,"Antibiotic MIC, Vancomycin",A. baumannii; [31],8 µg/mL
same,"Antibiotic MIC, Erythromycin",A. baumannii; [32],0.125 µg/mL
same,"Antibiotic MIC, Linezolid",A. baumannii; [32],2 µg/mL
same,"Antibiotic MIC, Vancomycin",A. baumannii; [32],2 µg/mL
same,"Antibiotic MIC, Erythromycin",A. baumannii; [33],0 µg/mL
same,"Antibiotic MIC, Linezolid",A. baumannii; [33],0 µg/mL
same,"Antibiotic MIC, Vancomycin",A. baumannii; [33],0 µg/mL
same,"Antibiotic MIC, Erythromycin",A. baumannii; [34],0 µg/mL
same,"Antibiotic MIC, Linezolid",A. baumannii; [34],0 µg/mL
same,"Antibiotic MIC, Vancomycin",A. baumannii; [34],0 µg/mL
same,"Antibiotic MIC, Erythromycin",A. baumannii; [35],0 µg/mL
same,"Antibiotic MIC, Linezolid",A. baumannii; [35],0 µg/mL
same,"Antibiotic MIC, Vancomycin",A. baumannii; [35],0 µg/mL
same,Antibacterial activity relative to PapMA-1,[3],twice to four times higher
"CC[C@H](C)[C@H](NC(=O)[C@H](CCCCN)NC(=O)[C@H](Cc1c[nH]c2ccccc12)NC(=O)[C@@H](N)CCCNC(=N)N)C(=O)N[C@@H](Cc1ccccc1)C(=O)N[C@@H](CCCCN)C(=O)N[C@@H](CCCCN)C(=O)N[C@H](C(=O)N[C@H](CC(C)C)C(=O)N[C@@H](CCCCN)C(=O)N[C@@H](CC(C)C)C(=O)N[C@@H](CC(C)C)C(=O)N[C@@H](Cc1c[nH]cn1)C(=O)N[C@@H](CCCCN)C(=O)N[C@@H](C)C(=O)N[C@@H](CCCCN)C(=O)N[C@@H](CCCCN)C(=O)N[C@@H](Cc1c[nH]c2ccccc12)C(N)=O)[C@@H](C)CC [PapMA-22, RWK IFK KIl KLL HKA KKW-NH2] (H-RWKIFKKI[dL]KLLHKAKKW-NH2; N-terminus assumed)",Minimal inhibitory concentration MIC,E. coli [1],32 µg/mL
same,Minimal inhibitory concentration MIC,MDREC 1229,32 µg/mL
same,"Peptide MIC, peptide alone",MDREC 1229,32 µg/mL
same,Minimal inhibitory concentration MIC,MDRST 8009,32 µg/mL
same,Synergistic effect of antibacterial activity with existing antibiotics compared with PapMA-1,E. coli [2],level similar to that of the PapMA-1 peptide
same,"Antibiotic MIC, Erythromycin",E. coli [2]; [4],128 µg/mL
same,"Antibiotic MIC, Erythromycin",E. coli [2]; [5],32 µg/mL
same,"Antibiotic MIC, Erythromycin",E. coli [2]; [6],16 µg/mL
same,"Antibiotic MIC, Erythromycin",E. coli [2]; [7],8 µg/mL
same,"Antibiotic MIC, Erythromycin",E. coli [2]; [8],2 µg/mL
same,"Antibiotic MIC, Erythromycin",E. coli [2]; [9],1 µg/mL
same,"Antibiotic MIC, Erythromycin",E. coli [2]; [10],0 µg/mL
same,"Antibiotic MIC, Erythromycin",E. coli [2]; [11],0 µg/mL
same,"Antibiotic MIC, Linezolid",E. coli [2]; [12],>128 µg/mL
same,"Antibiotic MIC, Linezolid",E. coli [2]; [13],128 µg/mL
same,"Antibiotic MIC, Linezolid",E. coli [2]; [14],64 µg/mL
same,"Antibiotic MIC, Linezolid",E. coli [2]; [15],32 µg/mL
same,"Antibiotic MIC, Linezolid",E. coli [2]; [16],32 µg/mL
same,"Antibiotic MIC, Linezolid",E. coli [2]; [17],16 µg/mL
same,"Antibiotic MIC, Linezolid",E. coli [2]; [18],0 µg/mL
same,"Antibiotic MIC, Linezolid",E. coli [2]; [19],0 µg/mL
same,"Antibiotic MIC, Vancomycin",E. coli [2]; [20],>128 µg/mL
same,"Antibiotic MIC, Vancomycin",E. coli [2]; [21],>128 µg/mL
same,"Antibiotic MIC, Vancomycin",E. coli [2]; [22],128 µg/mL
same,"Antibiotic MIC, Vancomycin",E. coli [2]; [23],64 µg/mL
same,"Antibiotic MIC, Vancomycin",E. coli [2]; [24],32 µg/mL
same,"Antibiotic MIC, Vancomycin",E. coli [2]; [25],16 µg/mL
same,"Antibiotic MIC, Vancomycin",E. coli [2]; [26],0 µg/mL
same,"Antibiotic MIC, Vancomycin",E. coli [2]; [27],0 µg/mL
same,Synergistic effect of antibacterial activity with existing antibiotics compared with PapMA-1,A. baumannii,level similar to that of PapMA-1 peptide
same,"Antibiotic MIC, Erythromycin",A. baumannii; [28],32 µg/mL
same,"Antibiotic MIC, Linezolid",A. baumannii; [28],>128 µg/mL
same,"Antibiotic MIC, Vancomycin",A. baumannii; [28],>128 µg/mL
same,"Antibiotic MIC, Erythromycin",A. baumannii; [29],32 µg/mL
same,"Antibiotic MIC, Linezolid",A. baumannii; [29],>128 µg/mL
same,"Antibiotic MIC, Vancomycin",A. baumannii; [29],128 µg/mL
same,"Antibiotic MIC, Erythromycin",A. baumannii; [30],8 µg/mL
same,"Antibiotic MIC, Linezolid",A. baumannii; [30],32 µg/mL
same,"Antibiotic MIC, Vancomycin",A. baumannii; [30],64 µg/mL
same,"Antibiotic MIC, Erythromycin",A. baumannii; [31],2 µg/mL
same,"Antibiotic MIC, Linezolid",A. baumannii; [31],16 µg/mL
same,"Antibiotic MIC, Vancomycin",A. baumannii; [31],32 µg/mL
same,"Antibiotic MIC, Erythromycin",A. baumannii; [32],1 µg/mL
same,"Antibiotic MIC, Linezolid",A. baumannii; [32],8 µg/mL
same,"Antibiotic MIC, Vancomycin",A. baumannii; [32],8 µg/mL
same,"Antibiotic MIC, Erythromycin",A. baumannii; [33],0 µg/mL
same,"Antibiotic MIC, Linezolid",A. baumannii; [33],0 µg/mL
same,"Antibiotic MIC, Vancomycin",A. baumannii; [33],0 µg/mL
same,"Antibiotic MIC, Erythromycin",A. baumannii; [34],0 µg/mL
same,"Antibiotic MIC, Linezolid",A. baumannii; [34],0 µg/mL
same,"Antibiotic MIC, Vancomycin",A. baumannii; [34],0 µg/mL
same,"Antibiotic MIC, Erythromycin",A. baumannii; [35],0 µg/mL
same,"Antibiotic MIC, Linezolid",A. baumannii; [35],0 µg/mL
same,"Antibiotic MIC, Vancomycin",A. baumannii; [35],0 µg/mL
same,Antibacterial activity relative to PapMA-1,[3],twice to four times higher
